According to patent publication US20160193206A1, “BET-PROTEIN-INHIBITING DIHYDROPYRIDOPYRAZINONES” (BAYER PHARMA AKTIENGESELLSCHAFT, priority 2012, published 2016):

Assays:
[1] = target: T1, BRD4 bromo domain 1 [BRD4(1)] (Homo sapiens, UniProt O60885); assay: BRD4(1)/acetylated peptide H4 binding assay (TR-FRET); conditions: inhibition of interaction between His6-tagged BRD4(1) (amino acids 67-152) and acetylated histone H4 peptide
T1 construct: N-terminally His6-tagged BRD4(1) (amino acids 67-152); made in house; host or cells: E. coli
Outline: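 TR-FRET measured displacement of a biotinylated tetra-acetylated H4 peptide from His6-BRD4(1) (aa 67-152, E. coli-expressed, typically 10 nM) in HEPES pH 7.5 buffer. Compounds were tested at 11 concentrations (0.1 nM–20 μM), with 10 min preincubation, then 1 h at 22 °C and ≥3 h at 4 °C. The 665/620 nm ratio gave IC50 by 4-parameter fit.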

[2] = system: MOLM-13 cell line; assay: MOLM-13 cell proliferation assay (alamarBlue); assay type: cell-based; conditions: Homo sapiens, inhibition of proliferation of MOLM-13 cells (acute myeloid leukaemia), 96 hours incubation
Procedure: In accordance with the invention, the substances were tested for their ability to inhibit the proliferation of the MOLM-13 cell linie (Deutsche Sammlung für Mikroorganismen und Zellkulturen [German Collection of Microorganisms and Cell Cultures], ACC 554; acute myeloid leukaemia). Cell viability was determined by means of the alamarBlue® reagent (Invitrogen) in a Victor X3 Multilabel Reader (Perkin Elmer). The excitation wavelength was 530 nm and the emission wavelength […].
The MOLM-13 cells were sown at a density of 4000 cells/well in 100 μl of growth medium on 96-well microtitre plates. After overnight incubation at 37° C., the fluorescence values were determined (CI values). The plates were then treated with various substance dilutions and incubated at 37° C. for 96 hours. Subsequently, the fluorescence values were determined (CO values). For the data analysis, the CI values were subtracted from the CO values and the results were compared between cells which had been treated with various dilutions of the substance or only with buffer solution. The IC50 values (substance concentration needed for 50% inhibition of cell proliferation) were calculated therefrom.

[3] = target: T2, BRD4 bromo domain 2 [BRD4(2)] (Homo sapiens, UniProt O60885); assay: BRD4(2)/acetylated peptide H4 binding assay (TR-FRET); conditions: inhibition of interaction between His6-tagged BRD4(2) (amino acids 357-445) and acetylated histone H4 peptide
T2 construct: N-terminally His6-tagged BRD4(2) (amino acids 357-445); made in house; host or cells: E. coli
Outline: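 TR-FRET displacement of biotinylated tetra-acetylated H4 peptide from His6-BRD4(2) (aa 357-445, E. coli-expressed), 100 nM final, in HEPES pH 7.5 buffer; 11 compound concentrations 0.1 nM-20 μM, 10 min preincubation, then 1 h 22 °C plus ≥3 h 4 °C. 665/620 ratio read; IC50 by 4-parameter fit.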

Compound | IC50 [1] | IC50 [2] | IC50 [3]
COc1cc(C(=O)NCCN2CCN(C(=O)OC(C)(C)C)CC2)ccc1Nc1ccc2c(n1)N(C(C)C)[C@H](C)C(=O)N2C [Example 4, 1-tert-Butyl 4-{2-[(4-{[(3R)-1,3-dimethyl-2-oxo-4-(propan-2-yl)-1,2,3,4-tetrahydropyrido[2,3-b]pyrazin-6-yl]amino}-3-methoxybenzoyl)amino]ethyl}piperazinecarboxylate] | 374 nM | 1110 nM | 234 nM
COc1cc(C(=O)N2CC3(CCS3(=O)=O)C2)ccc1Nc1ccc2c(n1)N(C(C)C)[C@H](C)C(=O)N2C [Example 8, (3R)-6-({4-[(1,1-Dioxido-1-thia-6-azaspiro[3.3]hept-6-yl)carbonyl]-2-methoxyphenyl}amino)-4-isopropyl-1,3-dimethyl-3,4-dihydropyrido[2,3-b]pyrazin-2(1H)-one] | 141 nM | 362 nM | 83 nM
CC(C)N1c2nc(Nc3ccc(C(=O)N4CC5(CCS5(=O)=O)C4)cc3)ccc2N(C)C(=O)[C@H]1C [Example 9, (3R)-6-({4-[(1,1-Dioxido-1-thia-6-azaspiro[3.3]hept-6-yl)carbonyl]phenyl}amino)-4-isopropyl-1,3-dimethyl-3,4-dihydropyrido[2,3-b]pyrazin-2(1H)-one] | 150 nM | 698 nM | 130 nM
C[C@@H]1C(=O)N(C)c2ccc(Nc3ccc(C(=O)NC4CCN(C)CC4)cc3)nc2N1C1CCCC1 [Example 11, 4-{[(3R)-4-Cyclopentyl-1,3-dimethyl-2-oxo-1,2,3,4-tetrahydropyrido[2,3-b]pyrazin-6-yl]amino}-N-(1-methylpiperidin-4-yl)benzamide] | 63 nM | 444 nM | 83 nM
COc1cc(C(=O)N[C@H]2CC[C@H](N3CCN(CC4CC4)CC3)CC2)ccc1Nc1ccc2c(n1)N(C1CCOCC1)[C@H](C)C(=O)N2C [Example 14, N-{trans-4-[4-(Cyclopropylmethyl)piperazin-1-yl]cyclohexyl}-4-{[(3R)-1,3-dimethyl-2-oxo-4-(tetrahydro-2H-pyran-4-yl)-1,2,3,4-tetrahydropyrido[2,3-b]pyrazin-6-yl]amino}-3-methoxybenzamide] | 149 nM | 233 nM | 108 nM
C[C@@H]1C(=O)N(C)c2ccc(Nc3ccc(S(=O)(=O)N[C@H]4CC[C@H](N5CCN(CC6CC6)CC5)CC4)cc3)nc2N1C1CCOCC1 [Example 15, N-{trans-4-[4-(Cyclopropylmethyl)piperazin-1-yl]cyclohexyl}-4-{[(3R)-1,3-dimethyl-2-oxo-4-(tetrahydro-2H-pyran-4-yl)-1,2,3,4-tetrahydropyrido[2,3-b]pyrazin-6-yl]amino}benzenesulphonamide] | 237 nM | 62 nM | 51 nM
C[C@@H]1C(=O)N(C)c2ccc(Nc3ccc(S(=O)(=O)N4CCOCC4)cc3)nc2N1C1CCOCC1 [Example 18, (3R)-1,3-dimethyl-6-{[4-(morpholin-4-ylsulphonyl)phenyl]amino}-4-(tetrahydro-2H-pyran-4-yl)-3,4-dihydropyrido[2,3-b]pyrazin-2(1H)-one] | 56 nM | 305 nM | 40 nM
C[C@@H]1C(=O)N(C)c2ccc(Nc3ccc(S(=O)(=O)NC4CCN(C)CC4)cc3)nc2N1C1CCOCC1 [Example 22, 4-{[(3R)-1,3-dimethyl-2-oxo-4-(tetrahydro-2H-pyran-4-yl)-1,2,3,4-tetrahydropyrido[2,3-b]pyrazin-6-yl]amino}-N-(1-methylpiperidin-4-yl)benzenesulphonamide] | 52 nM | 203 nM | 53 nM
COc1cc(Nc2ccc3c(n2)N(C2CCOCC2)[C@H](C)C(=O)N3C)ccc1S(=O)(=O)N1CCN(C)CC1 [Example 26, (3R)-6-({3-methoxy-4-[(4-methylpiperazin-1-yl)sulphonyl]phenyl}amino)-1,3-dimethyl-4-(tetrahydro-2H-pyran-4-yl)-3,4-dihydropyrido[2,3-b]pyrazin-2(1H)-one] | 70 nM | 296 nM | 67 nM
C[C@@H]1C(=O)N(C)c2ccc(Nc3ccc(S(=O)(=O)N(C)C)cc3)nc2N1C1CCOCC1 [Example 27, 4-{[(3R)-1,3-dimethyl-2-oxo-4-(tetrahydro-2H-pyran-4-yl)-1,2,3,4-tetrahydropyrido[2,3-b]pyrazin-6-yl]amino}-N,N-dimethylbenzene-sulphonamide] | 32 nM | 202 nM | 38 nM
C[C@@H]1C(=O)N(C)c2ccc(Nc3ccc(C(=O)NC4CN(C)C4)cc3)nc2N1C1CCCCC1 [Example 30, 4-{[(3R)-4-Cyclohexyl-1,3-dimethyl-2-oxo-1,2,3,4-tetrahydropyrido[2,3-b]pyrazin-6-yl]amino}-N-(1-methylazetidin-3-yl)benzamide] | 119 nM | 293 nM | 140 nM
COc1cc(C(=O)N[C@H]2CC[C@H](N3CCN(CC4CC4)CC3)CC2)ccc1Nc1ccc2c(n1)N(Cc1ccccc1)[C@H](C)C(=O)N2C [Example 34, 4-{[(3R)-4-Benzyl-1,3-dimethyl-2-oxo-1,2,3,4-tetrahydropyrido[2,3-b]pyrazin-6-yl]amino}-N-{trans-4-[4-(cyclopropylmethyl)piperazin-1-yl]cyclohexyl}-3-methoxybenzamide] | 256 nM | 338 nM | 104 nM

The remaining compounds from weak to strong by IC50 [1], led by results:

IC50 [1] | IC50 [2] | IC50 [3] | Compound
165 nM | 623 nM | 230 nM | COc1cc(C(=O)N2CC3(CCS3(=O)=O)C2)ccc1Nc1ccc2c(n1)N(C1CCCC1)[C@H](C)C(=O)N2C [Example 10, (3R)-4-Cyclopentyl-6-({4-[(1,1-dioxido-1-thia-6-azaspiro[3.3]hept-6-yl)carbonyl]-2-methoxyphenyl}amino)-1,3-dimethyl-3,4-dihydropyrido[2,3-b]pyrazin-2(1H)-one]
154 nM | 445 nM | 96 nM | C[C@@H]1C(=O)N(C)c2ccc(Nc3ccc(S(=O)(=O)N4CCN(C)CC4)cc3)nc2N1C1CCOCC1 [Example 20, (3R)-1,3-dimethyl-6-({4-[(4-methylpiperazin-1-yl)sulphonyl]phenyl}amino)-4-(tetrahydro-2H-pyran-4-yl)-3,4-dihydropyrido[2,3-b]pyrazin-2(1H)-one]
114 nM | 212 nM | 113 nM | COc1cc(C(=O)NC2CCN(C)CC2)ccc1Nc1ccc2c(n1)N(C1CCOCC1)[C@H](C)C(=O)N2C [Example 13, 4-{[(3R)-1,3-Dimethyl-2-oxo-4-(tetrahydro-2H-pyran-4-yl)-1,2,3,4-tetrahydropyrido[2,3-b]pyrazin-6-yl]amino}-3-methoxy-N-(1-methylpiperidin-4-yl)benzamide]
106 nM | 397 nM | 87 nM | C[C@@H]1C(=O)N(C)c2ccc(Nc3ccc(S(=O)(=O)N4CCN(C)CC4)cc3F)nc2N1C1CCOCC1 [Example 21, (3R)-6-({2-fluoro-4-[(4-methylpiperazin-1-yl)sulphonyl]phenyl}amino)-1,3-dimethyl-4-(tetrahydro-2H-pyran-4-yl)-3,4-dihydropyrido[2,3-b]pyrazin-2(1H)-one]
81 nM | 554 nM | 76 nM | C[C@@H]1C(=O)N(C)c2ccc(Nc3ccc(S(=O)(=O)NCCN(C)C)cc3)nc2N1C1CCOCC1 [Example 24, N-[2-(dimethylamino)ethyl]-4-{[(3R)-1,3-dimethyl-2-oxo-4-(tetrahydro-2H-pyran-4-yl)-1,2,3,4-tetrahydropyrido[2,3-b]pyrazin-6-yl]amino}benzene-sulphonamide]
50 nM | 388 nM | 94 nM | C[C@@H]1C(=O)N(C)c2ccc(Nc3ccc(S(=O)(=O)NCc4ccccn4)cc3)nc2N1C1CCOCC1 [Example 25, 4-{[(3R)-1,3-dimethyl-2-oxo-4-(tetrahydro-2H-pyran-4-yl)-1,2,3,4-tetrahydropyrido[2,3-b]pyrazin-6-yl]amino}-N-(pyridin-2-ylmethyl)benzene-sulphonamide]
46 nM | 358 nM | 65 nM | C[C@@H]1C(=O)N(C)c2ccc(Nc3ccc(S(=O)(=O)NCCN4CCN(C)CC4)cc3)nc2N1C1CCOCC1 [Example 23, 4-{[(3R)-1,3-dimethyl-2-oxo-4-(tetrahydro-2H-pyran-4-yl)-1,2,3,4-tetrahydropyrido[2,3-b]pyrazin-6-yl]amino}-N-[2-(4-methylpiperazin-1-yl)ethyl]benzene-sulponamide]
